From patent US20260258035A1, “FIVE-MEMBERED AND SIX-MEMBERED NITROGEN-CONTAINING COMPOUND, AND INTERMEDIATE, PREPARATION METHOD AND USE THEREOF” (HANGZHOU SYNRX THERAPEUTICS BIOMEDICAL TECHNOLOGY CO., LTD., priority 2022, published 2026) come the findings set out here.

In one assay the target is PARG (Homo sapiens, UniProt Q86W56). Put plainly: Biochemical assay (PARG, TFMU-ADPr substrate).
A further assay concerns HCC1806. Put plainly: Cell viability assay (CellTiter-Glo). The format is cell-based, Human. (In general: In ATP-based viability assays light output follows the ATP content of the culture.)
Setting [1] is: Homo sapiens, HCC1806, 168 h, HCC1806, 7 days, CellTiter-Glo, read-out: IC50 (nM) in cell viability assay.
Where [2] appears, read: 4 nM PARG, 66.2 uM TFMU-ADPr, 3 min at room temperature.
The mark [3] stands for this setting: HCC1806, 7 days, CellTiter-Glo, read-out: IC50 (nM) in cell viability assay.

Where two headings read alike, the source gives them in different places.

PARG, sequence (Q86W56 whole entry): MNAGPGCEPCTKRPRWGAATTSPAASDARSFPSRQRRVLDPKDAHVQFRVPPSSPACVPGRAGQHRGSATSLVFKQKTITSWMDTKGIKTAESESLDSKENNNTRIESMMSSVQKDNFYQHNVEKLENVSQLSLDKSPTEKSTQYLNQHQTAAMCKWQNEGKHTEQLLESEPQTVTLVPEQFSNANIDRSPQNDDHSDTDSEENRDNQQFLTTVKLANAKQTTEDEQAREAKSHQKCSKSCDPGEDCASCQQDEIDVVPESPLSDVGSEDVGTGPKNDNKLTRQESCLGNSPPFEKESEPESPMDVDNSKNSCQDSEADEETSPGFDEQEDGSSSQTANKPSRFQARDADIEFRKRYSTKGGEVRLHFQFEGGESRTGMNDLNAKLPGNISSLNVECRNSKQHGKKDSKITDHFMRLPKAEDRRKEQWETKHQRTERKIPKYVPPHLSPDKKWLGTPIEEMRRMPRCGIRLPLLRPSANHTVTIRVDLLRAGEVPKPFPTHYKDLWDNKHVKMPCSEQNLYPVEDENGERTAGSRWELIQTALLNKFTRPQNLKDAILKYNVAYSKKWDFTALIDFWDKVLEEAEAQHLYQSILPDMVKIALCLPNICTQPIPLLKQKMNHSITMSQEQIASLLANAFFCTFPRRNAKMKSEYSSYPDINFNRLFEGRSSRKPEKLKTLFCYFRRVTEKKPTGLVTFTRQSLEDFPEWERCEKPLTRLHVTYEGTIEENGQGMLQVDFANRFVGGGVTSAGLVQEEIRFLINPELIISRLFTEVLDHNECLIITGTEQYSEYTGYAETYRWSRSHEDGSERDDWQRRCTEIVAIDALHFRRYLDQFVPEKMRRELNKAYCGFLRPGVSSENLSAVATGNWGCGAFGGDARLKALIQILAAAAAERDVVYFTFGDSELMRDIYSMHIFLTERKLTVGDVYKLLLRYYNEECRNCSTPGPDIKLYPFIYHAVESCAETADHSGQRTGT

A word on the IC50: it is the point on the concentration scale where inhibition reaches its midpoint. In the case of `CC1(NS(=O)(=O)c2cc(N3CCC(O)CC3)c3cnc(-c4nnc(C(F)F)s4)n3c2)CC1` [Example 305, 3-(5-(difluoromethyl)-1,3,4-thiadiazol-2-yl)-8-(4-hydroxypiperidin-1-yl)-N-(1-methylcyclopropyl)imidazo[1,5-a]pyridine-6-sulfonamide], the IC50 is 6.91 nM against PARG (PARG, TFMU-ADPr substrate) and 130 nM in the assay on HCC1806 (setting [1]).
As for `Cn1nccc1C1C=C(c2cc(S(=O)(=O)NC3(C#N)CC3)cn3c(-c4nnc(C(F)F)s4)nnc23)CC1` (stereo not drawn) [Example 367, N-(1-cyanocyclopropyl)-3-(5-(difluoromethyl)-1,3,4-thiadiazol-2-yl)-8-(3-(1-methyl-1H-pyrazol-5-yl)cyclopent-1-en-1-yl)-[1,2,4]triazolo[4,3-a]pyridine-6-sulfonamide], the IC50 on PARG (setting [2]) was below 100 nM; on PARG (PARG, TFMU-ADPr substrate) it was 32.8 nM; in the assay with HCC1806 (setting [3]), 6780 nM; with HCC1806 (setting [1]), 5000 to 30000 nM.
Take `N#CC1(NS(=O)(=O)c2cc(N3CCC4=C(COC4=O)C3)c3cnc(-c4nnc(C(F)(F)F)s4)n3c2)CC1` [Example 220, N-(1-cyanocyclopropyl)-8-(1-oxo-1,4,6,7-tetrahydrofuro[3,4-c]pyridin-5(3H)-yl)-3-(5-(trifluoromethyl)-1,3,4-thiadiazol-2-yl)imidazo[1,5-a]pyridine-6-sulfonamide]: the half-inhibitory concentration (IC50) at PARG (PARG, TFMU-ADPr substrate) worked out at 57.5 nM; in the assay with HCC1806 (setting [1]), 664 nM.
Turning to `CC(C)C(=O)N1CCN(c2nc(S(=O)(=O)NC3(C)CC3)cn3c(-c4nnc(C(F)F)s4)ncc23)CC1` [Example 162, 3-(5-(difluoromethyl)-1,3,4-thiadiazol-2-yl)-8-(4-isobutyrylpiperazin-1-yl)-N-(1-methylcyclopropyl)imidazo[1,5-a]pyrazine-6-sulfonamide], the IC50 was 500 to 1000 nM against PARG (setting [2]); 525 nM on PARG (PARG, TFMU-ADPr substrate); 6070 nM in the assay on HCC1806 (setting [3]); 5000 to 30000 nM with HCC1806 (setting [1]).
On to `N#CC1(NS(=O)(=O)c2cc(N3CCN(C(=O)[C@@H]4CCCN4)CC3)c3cnc(-c4nnc(C(F)(F)F)s4)n3c2)CC1` [Example 270, (S)-N-(1-cyanocyclopropyl)-8-(4-prolylpiperazin-1-yl)-3-(5-(trifluoromethyl)-1,3,4-thiadiazol-2-yl)imidazo[1,5-a]pyridine-6-sulfonamide], for which the IC50 against PARG (PARG, TFMU-ADPr substrate) turned out to be 91.2 nM; in the assay with HCC1806 (setting [1]), 35900 nM.
The corresponding values for `CC(C)OCC1CN(c2cc(S(=O)(=O)NC3(C)COC3)cn3c(-c4nnc(C(F)F)s4)nc(Cl)c23)CCN1` (stereo not drawn) [Example 137, 1-chloro-3-(5-(difluoromethyl)-1,3,4-thiadiazol-2-yl)-8-(3-(isopropoxymethyl)piperazin-1-yl)-N-(3-methyloxetan-3-yl)imidazo[1,5-a]pyridine-6-sulfonamide] are 15.8 nM and 332 nM.
The corresponding values for `CC(C)OC1(C(=O)N2CCN(c3cc(S(=O)(=O)NC4(C)CC4)cn4c(-c5nnc(C(F)(F)F)s5)ncc34)CC2)CC1` [Example 202, 8-(4-(1-isopropoxycyclopropane-1-carbonyl)piperazin-1-yl)-N-(1-methylcyclopropyl)-3-(5-(trifluoromethyl)-1,3,4-thiadiazol-2-yl)imidazo[1,5-a]pyridine-6-sulfonamide] are 1.16 nM and 133 nM.
Taken in the same sequence, the figures for `CN1CC(C)(C(=O)N2CCN(c3cc(S(=O)(=O)NC4(C)CC4)cn4c(-c5nnc(C(F)(F)F)s5)ncc34)CC2)C1` [Example 314, 8-(4-(1,3-dimethylazetidine-3-carbonyl)piperazin-1-yl)-N-(1-methylcyclopropyl)-3-(5-(trifluoromethyl)-1,3,4-thiadiazol-2-yl)imidazo[1,5-a]pyridine-6-sulfonamide] were 0.68 nM and 241 nM.
As for `CC(C)C(=O)N1CCN(c2cc(S(=O)(=O)NC3(C)CNC3)cn3c(-c4nnc(C(F)F)s4)ncc23)CC1` [Example 50, 3-(5-(difluoromethyl)-1,3,4-thiadiazol-2-yl)-8-(4-isobutyrylpiperazin-1-yl)-N-(3-methylazetidin-3-yl)imidazo[1,5-a]pyridine-6-sulfonamide], the IC50 on PARG (setting [2]) was above 1000 nM; in the assay on HCC1806 (setting [1]), above 30000 nM.
With `N#CC1(NS(=O)(=O)c2ccc3c(C4=CCC5(CNC5)C4)nc(-c4nnc(C(F)F)s4)n3c2)CC1` [Example 22, N-(1-cyanocyclopropyl)-3-(5-(difluoromethyl)-1,3,4-thiadiazol-2-yl)-1-(2-azaspiro[3.4]oct-6-en-6-yl)imidazo[1,5-a]pyridine-6-sulfonamide], the IC50 was below 100 nM against PARG (setting [2]); 5.17 nM against PARG (PARG, TFMU-ADPr substrate); above 30000 nM in the assay on HCC1806 (Homo sapiens, HCC1806, 168 h, read-out: IC50 (nM) in cell viability assay, HCC1806, 7 days, CellTiter-Glo); 30000 nM in the assay on HCC1806 (read-out: IC50 (nM) in cell viability assay, HCC1806, 7 days, CellTiter-Glo).
Consider `CCNC(=O)N1CCN(c2cc(S(=O)(=O)NC3(C)COC3)cn3c(-c4nnc(C(F)(F)F)s4)ncc23)CC1` [Example 362, N-ethyl-4-(6-(N-(3-methyloxetan-3-yl)sulfamoyl)-3-(5-(trifluoromethyl)-1,3,4-thiadiazol-2-yl)imidazo[1,5-a]pyridin-8-yl)piperazine-1-carboxamide], for which the IC50 against PARG (PARG, TFMU-ADPr substrate) turned out to be 6.31 nM; with HCC1806 (setting [1]), 158 nM.
For `C[C@@H]1CN(c2cc(S(=O)(=O)NC3(C#N)CC3)cn3c(-c4nnc(C(F)(F)F)s4)ncc23)CCN1C(=O)C1CCO1` (stereo partly drawn) [Example 302, N-(1-cyanocyclopropyl)-8-((3R)-3-methyl-4-(oxetane-2-carbonyl)piperazin-1-yl)-3-(5-(trifluoromethyl)-1,3,4-thiadiazol-2-yl)imidazo[1,5-a]pyridine-6-sulfonamide], the IC50 at PARG (PARG, TFMU-ADPr substrate) was 15.4 nM; with HCC1806 (setting [1]) it was 329 nM.
Taken in the same sequence, the figures for `COCC1CN(c2cc(S(=O)(=O)NC3(CF)COC3)cn3c(-c4nnc(C(F)F)s4)nc(Cl)c23)CCN1` (stereo not drawn) [Example 136, 1-chloro-3-(5-(difluoromethyl)-1,3,4-thiadiazol-2-yl)-N-(3-(fluoromethyl)oxetan-3-yl)-8-(3-(methoxymethyl)piperazin-1-yl)imidazo[1,5-a]pyridine-6-sulfonamide] were 7.94 nM and 199 nM.
The corresponding values for `N#CC1(NS(=O)(=O)c2cc(C3=CCN(C(=O)C4(O)CC4)CC3)c3cnc(-c4nnc(C(F)(F)F)s4)n3c2)CC1` [Example 371, N-(1-cyanocyclopropyl)-8-(1-(1-hydroxycyclopropane-1-carbonyl)-1,2,3,6-tetrahydropyridin-4-yl)-3-(5-(trifluoromethyl)-1,3,4-thiadiazol-2-yl)imidazo[1,5-a]pyridine-6-sulfonamide] are 4.57 nM and 360 nM.
Taken in the same sequence, the figures for `C[C@H]1CN(c2cc(S(=O)(=O)NC3(C)COC3)cn3c(-c4nnc(C(F)(F)F)s4)nc(Cl)c23)C[C@H](C)N1` [Example 125, 1-chloro-8-((3S,5S)-3,5-dimethylpiperazin-1-yl)-N-(3-methyloxetan-3-yl)-3-(5-(trifluoromethyl)-1,3,4-thiadiazol-2-yl)imidazo[1,5-a]pyridine-6-sulfonamide] were 31.2 nM and 518 nM.
`COC1(C(=O)N2CCN(c3cc(S(=O)(=O)NC4(C)CC4)cn4c(-c5nnc(C(F)F)s5)ncc34)CC2)CN(CCF)C1` [Example 312, 3-(5-(difluoromethyl)-1,3,4-thiadiazol-2-yl)-8-(4-(1-(2-fluoroethyl)-3-methoxyazetidine-3-carbonyl)piperazin-1-yl)-N-(1-methylcyclopropyl)imidazo[1,5-a]pyridine-6-sulfonamide]: the IC50 against PARG (PARG, TFMU-ADPr substrate) is below 0.1 nM; with HCC1806 (setting [1]) it was 6.02 nM.
Taken in the same sequence, the figures for `CC1(NS(=O)(=O)c2cc(N3CCN(C(=O)C4CCO4)CC3)c3cnc(-c4nnc(C(F)(F)F)s4)n3c2)CC1` (stereo not drawn) [Example 304, N-(1-methylcyclopropyl)-8-(4-(oxetane-2-carbonyl)piperazin-1-yl)-3-(5-(trifluoromethyl)-1,3,4-thiadiazol-2-yl)imidazo[1,5-a]pyridine-6-sulfonamide] were 3.86 nM and 70 nM.
For `CN(C)C(=O)N1CCN(c2cc(S(=O)(=O)NC3(C)CC3)cn3c(-c4nnc(C(F)F)s4)ncc23)CC1` [Example 308, 4-(3-(5-(difluoromethyl)-1,3,4-thiadiazol-2-yl)-6-(N-(1-methylcyclopropyl)sulfamoyl)imidazo[1,5-a]pyridin-8-yl)-N,N-dimethylpiperazine-1-carboxamide], the IC50 at PARG (PARG, TFMU-ADPr substrate) was 0.73 nM; in the assay with HCC1806 (setting [1]), 104 nM.
Taken in the same sequence, the figures for `CN(C)CC1(O)CCN(c2cc(S(=O)(=O)NC3(C)CC3)cn3c(-c4nnc(C(F)F)s4)ncc23)CC1` [Example 337, 3-(5-(difluoromethyl)-1,3,4-thiadiazol-2-yl)-8-(4-((dimethylamino)methyl)-4-hydroxypiperidin-1-yl)-N-(1-methylcyclopropyl)imidazo[1,5-a]pyridine-6-sulfonamide] were 4.82 nM and 245 nM.
Taken in the same sequence, the figures for `COCC1CN(c2cc(S(=O)(=O)NC3(C)COC3)cn3c(-c4nnc(C(F)(F)F)s4)ncc23)CCN1` (stereo not drawn) [Example 358, 8-(3-(methoxymethyl)piperazin-1-yl)-N-(3-methyloxetan-3-yl)-3-(5-(trifluoromethyl)-1,3,4-thiadiazol-2-yl)imidazo[1,5-a]pyridine-6-sulfonamide] were 15.8 nM and 261 nM.
Taken in the same sequence, the figures for `N#CC1(NS(=O)(=O)c2cc(N3CCN(C(=O)C4C5COCC54)CC3)c3cnc(-c4nnc(C(F)(F)F)s4)n3c2)CC1` (stereo not drawn) [Example 297, 8-(4-(3-oxabicyclo[3.1.0]hexane-6-carbonyl)piperazin-1-yl)-N-(1-cyanocyclopropyl)-3-(5-(trifluoromethyl)-1,3,4-thiadiazol-2-yl)imidazo[1,5-a]pyridine-6-sulfonamide] were 55 nM and 362 nM.
